# Experimental data: ChEMBL document CHEMBL1201862, “PubChem BioAssay data set” (2004)
#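 Interpolation was linear, between the two tested concentrations surrounding the appropriate level; five concentrations were tested over 48 hours in 96-well plates. GI50 marks 50% less growth.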 Active and inactive are the calls of the source. Cut-off read from the data, not from the text of the source: active = GI50 up to about 1.1 µM and inactive = higher.
# Assays:
# Assay in all cases: NCI anticancer screen, dose series, 48 h
# OVCAR-4 = test system: OVCAR-4
# CAKI-1 = test system: CAKI-1
# SK-MEL-5 = test system: SK-MEL-5
# SF-295 = test system: SF-295
# NCI-H226 = test system: NCI-H226
# A549 = test system: A549
# UACC-257 = test system: UACC-257
# K562 = test system: K562
# SNB-19 = test system: SNB-19
# ACHN = test system: ACHN
# OVCAR-3 = test system: OVCAR-3
# LXFL 529 = test system: LXFL 529
# SK-MEL-2 = test system: SK-MEL-2
# COLO 205 = test system: COLO 205
# DMS-114 = test system: DMS-114
# HT-29 = test system: HT-29
# U-251 = test system: U-251
# TK-10 = test system: TK-10
# SW-620 = test system: SW-620
# CCRF-CEM = test system: CCRF-CEM
# 786-0 = test system: 786-0
# RPMI-8226 = test system: RPMI-8226
# SF-268 = test system: SF-268
# HCC 2998 = test system: HCC 2998
# M19-MEL = test system: M19-MEL
# HCT-15 = test system: HCT-15
# DMS-273 = test system: DMS-273
# HOP-62 = test system: HOP-62
# KM12 = test system: KM12
# HL-60 = test system: HL-60
# KM-20L2 = test system: KM-20L2
# UO-31 = test system: UO-31
# SK-OV-3 = test system: SK-OV-3
# Malme-3M = test system: Malme-3M
# SR = test system: SR
# IGROV-1 = test system: IGROV-1
# SN12C = test system: SN12C
# UACC-62 = test system: UACC-62
# NCI-H522 = test system: NCI-H522
# RXF 393 = test system: RXF 393
# OVCAR-5 = test system: OVCAR-5
# SK-MEL-28 = test system: SK-MEL-28
# HCT-116 = test system: HCT-116
# MOLT-4 = test system: MOLT-4
# EKVX = test system: EKVX
# OVCAR-8 = test system: OVCAR-8
# XF498 = test system: XF498
# DLD-1 = test system: DLD-1
# NCI-H23 = test system: NCI-H23
# NCI-H460 = test system: NCI-H460
# M14 = test system: M14
# LOX IMVI = test system: LOX IMVI
# SNB-78 = test system: SNB-78
# HOP-18 = test system: HOP-18
# A498 = test system: A498
# HOP-92 = test system: HOP-92
# SF-539 = test system: SF-539
# SNB-75 = test system: SNB-75
structure (smiles),measurement,setting,value
O=C(/C=N/O)Nc1ccc(Cl)c(I)c1,GI50,OVCAR-4,28.6 µM (inactive)
same,GI50,CAKI-1,14.3 µM (inactive)
same,GI50,SK-MEL-5,18.4 µM (inactive)
same,GI50,SF-295,29.5 µM (inactive)
same,GI50,NCI-H226,0.0445 µM (active)
same,GI50,A549,26.9 µM (inactive)
same,GI50,UACC-257,28.6 µM (inactive)
same,GI50,K562,24 µM (inactive)
same,GI50,SNB-19,23.9 µM (inactive)
same,GI50,ACHN,16.7 µM (inactive)
same,GI50,OVCAR-3,13.6 µM (inactive)
same,GI50,LXFL 529,12.9 µM (inactive)
same,GI50,SK-MEL-2,15.7 µM (inactive)
same,GI50,COLO 205,13.6 µM (inactive)
same,GI50,DMS-114,16.6 µM (inactive)
same,GI50,HT-29,33.3 µM (inactive)
same,GI50,U-251,16.1 µM (inactive)
same,GI50,TK-10,33.6 µM (inactive)
same,GI50,SW-620,34.4 µM (inactive)
same,GI50,CCRF-CEM,26.7 µM (inactive)
same,GI50,786-0,29.3 µM (inactive)
same,GI50,RPMI-8226,20 µM (inactive)
same,GI50,SF-268,19.2 µM (inactive)
same,GI50,HCC 2998,14.1 µM (inactive)
same,GI50,M19-MEL,22.4 µM (inactive)
same,GI50,HCT-15,14.4 µM
same,GI50,DMS-273,18.4 µM (inactive)
same,GI50,HOP-62,23.1 µM (inactive)
same,GI50,KM12,20.6 µM (inactive)
same,GI50,HL-60,19.3 µM (inactive)
same,GI50,KM-20L2,33 µM (inactive)
same,GI50,UO-31,12.1 µM (inactive)
same,GI50,SK-OV-3,17.8 µM (inactive)
same,GI50,Malme-3M,25.5 µM (inactive)
same,GI50,SR,15.7 µM (inactive)
same,GI50,IGROV-1,8.61 µM (inactive)
same,GI50,SN12C,22.5 µM (inactive)
same,GI50,UACC-62,10.2 µM (inactive)
same,GI50,NCI-H522,14.7 µM (inactive)
same,GI50,RXF 393,16.8 µM (inactive)
same,GI50,OVCAR-5,21.6 µM (inactive)
same,GI50,SK-MEL-28,27.7 µM (inactive)
same,GI50,HCT-116,12.9 µM (inactive)
same,GI50,MOLT-4,19.6 µM (inactive)
same,GI50,EKVX,10.8 µM (inactive)
same,GI50,OVCAR-8,28.9 µM (inactive)
same,GI50,XF498,21.6 µM (inactive)
same,GI50,DLD-1,27.1 µM (inactive)
same,GI50,NCI-H23,17.8 µM (inactive)
same,GI50,NCI-H460,21.6 µM (inactive)
same,GI50,M14,18.6 µM (inactive)
same,GI50,LOX IMVI,11.1 µM (inactive)
CCCCCCCC(=O)OC[C@H](C[As](=O)(O)O)OC(=O)CCCCCCC,GI50,OVCAR-4,12.2 µM (inactive)
same,GI50,SNB-78,14 µM (inactive)
same,GI50,SK-MEL-5,13.6 µM (inactive)
same,GI50,SF-295,14.4 µM (inactive)
same,GI50,NCI-H226,5.9 µM (inactive)
same,GI50,A549,2.86 µM (inactive)
same,GI50,UACC-257,12.8 µM (inactive)
same,GI50,K562,12.7 µM (inactive)
same,GI50,SNB-19,14.3 µM (inactive)
same,GI50,ACHN,10.7 µM (inactive)
same,GI50,LXFL 529,9.55 µM (inactive)
same,GI50,COLO 205,15.1 µM (inactive)
same,GI50,DMS-114,6.84 µM (inactive)
same,GI50,HT-29,12.2 µM (inactive)
same,GI50,U-251,4.95 µM (inactive)
same,GI50,SW-620,7.26 µM (inactive)
same,GI50,HOP-18,22 µM (inactive)
same,GI50,CCRF-CEM,1.95 µM (inactive)
same,GI50,786-0,13.4 µM (inactive)
same,GI50,RPMI-8226,5.36 µM (inactive)
same,GI50,SF-268,1.82 µM (inactive)
same,GI50,HCC 2998,14.6 µM (inactive)
same,GI50,M19-MEL,13.3 µM (inactive)
same,GI50,HCT-15,10.5 µM
same,GI50,DMS-273,11.3 µM (inactive)
same,GI50,HOP-62,18.7 µM (inactive)
same,GI50,HL-60,3.97 µM (inactive)
same,GI50,KM-20L2,16.6 µM (inactive)
same,GI50,UO-31,2.27 µM (inactive)
same,GI50,SK-OV-3,15 µM (inactive)
same,GI50,A498,11.5 µM (inactive)
same,GI50,Malme-3M,12.7 µM (inactive)
same,GI50,HOP-92,14.4 µM (inactive)
same,GI50,SR,3.05 µM (inactive)
same,GI50,SF-539,5.13 µM (inactive)
same,GI50,IGROV-1,3.57 µM (inactive)
same,GI50,SN12C,10.1 µM (inactive)
same,GI50,UACC-62,9.29 µM (inactive)
same,GI50,NCI-H522,1.42 µM (inactive)
same,GI50,RXF 393,3.92 µM (inactive)
same,GI50,SK-MEL-28,13.3 µM (inactive)
same,GI50,HCT-116,5.24 µM (inactive)
same,GI50,MOLT-4,2.15 µM (inactive)
same,GI50,EKVX,21.1 µM (inactive)
same,GI50,OVCAR-8,13.4 µM (inactive)
same,GI50,DLD-1,14.1 µM (inactive)
same,GI50,NCI-H23,14.3 µM (inactive)
same,GI50,SNB-75,11.1 µM (inactive)
same,GI50,M14,12.3 µM (inactive)
COC(=O)C1[C@H](c2ccc3c(c2)OCO3)OC(=O)[C@]1(C(=O)OC)C(=O)c1ccc(OC)c(OC)c1 (stereo partly specified),GI50,OVCAR-4,> 100 µM (inactive)
same,GI50,CAKI-1,> 100 µM (inactive)
same,GI50,SNB-78,56.8 µM (inactive)
same,GI50,SK-MEL-5,56.2 µM (inactive)
same,GI50,SF-295,> 100 µM (inactive)
same,GI50,NCI-H226,> 100 µM (inactive)
same,GI50,UACC-257,40.2 µM (inactive)
same,GI50,K562,36 µM (inactive)
same,GI50,ACHN,60.3 µM (inactive)
same,GI50,OVCAR-3,75.5 µM (inactive)
same,GI50,LXFL 529,41.5 µM (inactive)
same,GI50,SK-MEL-2,23.4 µM (inactive)
same,GI50,COLO 205,42.7 µM (inactive)
same,GI50,HT-29,28.1 µM (inactive)
same,GI50,U-251,44.9 µM (inactive)
same,GI50,TK-10,> 100 µM (inactive)
same,GI50,SW-620,39.3 µM (inactive)
same,GI50,HOP-18,> 100 µM (inactive)
same,GI50,CCRF-CEM,43.3 µM (inactive)
same,GI50,786-0,> 100 µM (inactive)
same,GI50,RPMI-8226,46.2 µM (inactive)
same,GI50,HCC 2998,34.7 µM (inactive)
same,GI50,M19-MEL,51.6 µM (inactive)
same,GI50,HCT-15,33.7 µM
same,GI50,DMS-273,25.1 µM (inactive)
same,GI50,HOP-62,> 100 µM (inactive)
same,GI50,KM12,41.3 µM (inactive)
same,GI50,HL-60,25.2 µM (inactive)
same,GI50,KM-20L2,56 µM (inactive)
same,GI50,UO-31,87.3 µM (inactive)
same,GI50,SK-OV-3,> 100 µM (inactive)
same,GI50,A498,> 100 µM (inactive)
same,GI50,Malme-3M,84.9 µM (inactive)
same,GI50,HOP-92,44.4 µM (inactive)
same,GI50,SR,34.2 µM (inactive)
same,GI50,SF-539,> 10 µM (inactive)
same,GI50,IGROV-1,42.3 µM (inactive)
same,GI50,SN12C,48.9 µM (inactive)
same,GI50,UACC-62,59.7 µM (inactive)
same,GI50,OVCAR-5,56.8 µM (inactive)
same,GI50,MOLT-4,20.5 µM (inactive)
same,GI50,EKVX,> 100 µM (inactive)
same,GI50,OVCAR-8,42.1 µM (inactive)
same,GI50,XF498,81.8 µM (inactive)
same,GI50,DLD-1,17.4 µM (inactive)
same,GI50,NCI-H23,29.3 µM (inactive)
same,GI50,SNB-75,90.4 µM (inactive)
same,GI50,NCI-H460,38.7 µM (inactive)
same,GI50,M14,70.1 µM (inactive)
same,GI50,LOX IMVI,18.8 µM (inactive)
